Assay results: paper PMC4706797 (Journal of pharmaceutical sciences, 2015)
Values belong to the molecule of their own block, whether it stands above or below them.

How the values were obtained:
[1] = tested on: MDA-MB-231; experiment: Cytotoxicity assay; type: cell-based; conditions: Homo sapiens, MDA-MB-231, 48 h, read-out: IC50 (μM) DTX only
[2] = tested on: HS578T; experiment: Cytotoxicity assay; type: cell-based; conditions: Homo sapiens, Hs-578T, 48 h, read-out: IC50 (μM) DTX only
[3] = tested on: MDA-MB-468; experiment: Cytotoxicity assay; type: cell-based; conditions: Homo sapiens, MDA-MB-468, 48 h, read-out: IC50 (μM) DTX only
[4] = tested on: HCC1806; experiment: Cytotoxicity assay; type: cell-based; conditions: Homo sapiens, HCC1806, 48 h, read-out: IC50 (μM) DTX only
[5] = tested on: HCC70; experiment: Cytotoxicity assay; type: cell-based; conditions: Homo sapiens, HCC70, 48 h, read-out: IC50 (μM) DTX only
[6] = tested on: MDA-MB-231 cells; experiment: In vitro migration; type: cell-based
[7] = tested on: Bcl-2; experiment: Western blot, Bcl-2 expression in MDA-MB-231 cells; type: cell-based; conditions: MDA-MB-231, DTX 0.1 μM and/or 1 μM PPL, 48 hr, densitometry
[8] = tested on: survivin; experiment: Western blot, survivin expression in MDA-MB-231 cells; type: cell-based; conditions: MDA-MB-231, DTX 0.1 μM and/or 1 μM PPL, 48 hr, densitometry
[9] = tested on: cyclin D1; experiment: Western blot, cyclin D1 expression in MDA-MB-231 cells; type: cell-based; conditions: MDA-MB-231, DTX 0.1 μM and/or 1 μM PPL, 48 hr, densitometry
[10] = tested on: p53; experiment: Western blot, p53 expression in MDA-MB-231 cells; type: cell-based; conditions: MDA-MB-231, DTX 0.1 μM and/or 1 μM PPL, 48 hr, densitometry
[11] = In vivo pharmacokinetic in rats; set-up: species or system Sprague Dawley rats
[12] = tested on: triple negative breast cancer (TNBC) cell lines; experiment: Cytotoxicity in TNBC cell lines; type: cell-based
[13] = oral co-administration with the taxane; cited from earlier work
[14] = tested on: CYP3A4; conditions: 50 μM PPL or CYA, 5 μM TST, human liver microsomes, over 60 min
[15] = target: P-gp (Homo sapiens, UniProt P08183); experiment: Caco-2 uptake study of P-gp substrates; conditions: Caco-2 cells, 50 μM PPL or verapamil
[16] = Sprague Dawley, rat, plasma, iv, 5 mg/kg

Chain of P-gp (P08183 whole entry): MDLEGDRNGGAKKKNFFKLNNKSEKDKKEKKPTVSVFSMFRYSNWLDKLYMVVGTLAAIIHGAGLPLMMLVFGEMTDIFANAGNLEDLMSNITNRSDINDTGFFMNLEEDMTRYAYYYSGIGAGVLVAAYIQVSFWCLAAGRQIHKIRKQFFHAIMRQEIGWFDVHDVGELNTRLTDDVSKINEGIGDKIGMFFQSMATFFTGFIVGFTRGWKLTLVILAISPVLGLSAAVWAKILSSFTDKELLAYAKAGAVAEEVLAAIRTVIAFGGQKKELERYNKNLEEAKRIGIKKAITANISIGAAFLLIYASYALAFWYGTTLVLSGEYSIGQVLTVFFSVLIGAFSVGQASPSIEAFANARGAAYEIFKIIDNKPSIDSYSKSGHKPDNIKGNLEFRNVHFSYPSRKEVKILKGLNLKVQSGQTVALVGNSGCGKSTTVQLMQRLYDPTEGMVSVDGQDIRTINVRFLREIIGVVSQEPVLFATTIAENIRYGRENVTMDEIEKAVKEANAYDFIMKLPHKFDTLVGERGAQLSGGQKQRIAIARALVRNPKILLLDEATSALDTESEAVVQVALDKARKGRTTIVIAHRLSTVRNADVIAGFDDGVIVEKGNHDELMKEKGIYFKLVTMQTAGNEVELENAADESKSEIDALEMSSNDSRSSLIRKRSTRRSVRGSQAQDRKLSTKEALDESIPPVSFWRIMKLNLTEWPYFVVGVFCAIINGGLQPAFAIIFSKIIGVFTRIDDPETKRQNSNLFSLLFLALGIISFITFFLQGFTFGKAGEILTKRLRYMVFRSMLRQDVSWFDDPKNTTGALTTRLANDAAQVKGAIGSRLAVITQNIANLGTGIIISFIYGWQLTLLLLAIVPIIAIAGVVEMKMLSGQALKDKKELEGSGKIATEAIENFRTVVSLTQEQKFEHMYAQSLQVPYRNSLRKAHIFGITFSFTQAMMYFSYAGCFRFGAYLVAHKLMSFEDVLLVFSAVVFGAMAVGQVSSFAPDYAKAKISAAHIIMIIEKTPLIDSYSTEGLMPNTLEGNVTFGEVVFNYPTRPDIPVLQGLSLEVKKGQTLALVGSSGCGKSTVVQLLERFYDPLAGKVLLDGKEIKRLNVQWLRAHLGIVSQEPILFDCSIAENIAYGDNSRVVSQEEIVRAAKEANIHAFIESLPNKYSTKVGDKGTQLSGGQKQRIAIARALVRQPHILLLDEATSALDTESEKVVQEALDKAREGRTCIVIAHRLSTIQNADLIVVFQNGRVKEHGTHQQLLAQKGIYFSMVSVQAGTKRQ

Absolute BA ([11]; SD rats, oral DTX 10 mg/kg (PPL 50 mg/kg where co-administered) vs IV 5 mg/kg): 9.26%
time after which DTX plasma concentration was non-detectable ([11]; SD rats, oral administration): 8 h
AUC [11, 16]: 5.29 ± 1.1 µg·h/mL
Cmax [11, 16]: 6.1 ± 1.7 µg/mL
MRT [11, 16]: 1.99 ± 0.36 h
half-life [11, 16]: 6.67 ± 1.6 h
SMILES: CC(=O)O[C@@]12CO[C@@H]1C[C@H](O)[C@@]1(C)C(=O)[C@H](O)C3=C(C)[C@@H](OC(=O)[C@H](O)[C@@H](NC(=O)OC(C)(C)C)c4ccccc4)C[C@@](O)([C@@H](OC(=O)c4ccccc4)[C@H]21)C3(C)C [DTX, Docetaxel]
IC50 [1]: 0.458 ± 0.081 µM
IC50 [2]: 0.077 ± 0.013 µM
IC50 [3]: 0.36 ± 0.069 µM
IC50 [4]: 0.0022 ± 0.001 µM
IC50 [5]: 0.019 ± 0.008 µM
percent bridging of scratch area ([6]; MDA-MB-231, 48 h, 0.1 μM DTX (combination with 1 μM PPL)): 49.3%
percent bridging of scratch area ([6]; MDA-MB-231, 48 h, 0.4 μM DTX (combination with 1 μM PPL)): 33.8%
Bcl-2 expression reduced compared to untreated control [7]: 2.59 fold
survivin expression down regulated compared to control [8]: 1.03 fold
cyclin D1 relative expression reduced compared to untreated control [9]: 0.8 fold
increase in expression of p53 compared to untreated control [10]: 1.2 fold

SMILES: O=C(/C=C/C=C/c1ccc2c(c1)OCO2)N1CCCCC1 [piperine]
anticancer and synergistic effect with docetaxel ([12]; in vitro studies, data not shown): did not show potent anticancer and synergistic effect

SMILES: CC(C)c1nc(CN(C)C(=O)N[C@H](C(=O)N[C@@H](Cc2ccccc2)C[C@H](O)[C@H](Cc2ccccc2)NC(=O)OCc2cncs2)C(C)C)cs1 [ritonavir]
increase in plasma concentrations of docetaxel [13]: 7.3 fold
increase in plasma concentrations of paclitaxel [13]: 2.5 fold

SMILES: COc1cc(/C=C/C(=O)N2CCC=CC2=O)cc(OC)c1OC [PPL, Piperlongumine]
cytotoxicity ([12]; PPL at 1 μM): no cytotoxcity
cell killing ([12]; PPL below 4 μM): not shown a significant cell killing
percent bridging of migration area ([6]; MDA-MB-231, 48 h, 1 μM PPL alone): comparable to control
anti-migration effect ([6]; PPL at concentration below 4 μM): no anti-migration effect
Bcl-2 expression reduced compared to untreated control [7]: 2.74 fold
survivin expression down regulated compared to control [8]: 1.19 fold
cyclin D1 relative expression reduced compared to untreated control [9]: 2.10 fold
increase in expression of p53 compared to untreated control [10]: 1.1 fold
reduction in TST metabolism [14]: ~50%
intracellular uptake of R123 (green fluorescence intensity) ([15]; 1 μM rhodamine 123, 90 min, qualitative): green fluorescence intensity was higher
higher intracellular accumulation (uptake) of DTX ([15]; 5 μM DTX, 90 min): 1.34 fold
